Earlier results as cited in patent US11459499B2, “Amidoamine-based gemini surfactant containing ethoxylate units and a method for oil recovery” (King Fahd University of Petroleum and Minerals, priority 2018, dated 2022).
Where two headings read alike, the source gives them in different places.

SMILES | reported CMC (literature (Lu et al., 2012)) | reported CMC (literature (Hoque et al., 2012)) [mM]
CCCCCCCCCCCC[N+](C)(C)CC[N+](C)(C)CCCCCCCCCCCC.[Br-].[Br-] [12-2-12] | about 5.5×10^−2 wt. % | –
CCCCCCCCCCCC[N+](C)(C)C.[Br-] [DTAB, dodecyltrimethylammonium bromide] | 5.0×10^−1 wt. % | 16.1
